# Measurements: PubChem BioAssay AID248 (DTP/NCI, 2004)
# Several values for one entry are separate records, joined by “and”; a condition that tells them apart may be missing. Equal values may be shown once. Toxic doses and inconclusive results are not listed.
# System: L1210 leukemia ip in BDF1 mice, survival T/C
# Assay: NCI In Vivo Anticancer Drug Screen. Data for tumor model L1210 Leukemia (intraperitoneal) in B6D2F1 (BDF1) mice
# Conditions: endpoint: mean survival time, higher = longer survival
# Procedure, shortened: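 Value reflects the ratio of survival in compound-treated mice to survival in vehicle-treated controls, with both groups carrying the same transplanted tumor.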
smiles,measurement,setting,value
O=C(Nc1ccc(C2=NCCCN2)cc1)c1ccc(NC(=O)c2ccc(C3=NCCCN3)cc2)cc1,T/C,"dose: 0.03 mg/kg/injection, schedule: Q01DX Z (iv), vehicle: water",107 % of control
same,T/C,"dose: 0.06 mg/kg/injection, schedule: Q01DX Z (iv), vehicle: water",102 % of control
same,T/C,"dose: 0.12 mg/kg/injection, schedule: Q01DX Z (ip), vehicle: carboxymethylcellulose (CMC)",102 % of control
same,T/C,"dose: 0.12 mg/kg/injection, schedule: Q01DX Z (iv), vehicle: water",113 % of control
same,T/C,"dose: 0.2 mg/kg/injection, schedule: Q01DX006 (iv), vehicle: carboxymethylcellulose (CMC)",119 % of control
same,T/C,"dose: 0.25 mg/kg/injection, schedule: Q01DX Z (ip), vehicle: carboxymethylcellulose (CMC)",103 % of control
same,T/C,"dose: 0.25 mg/kg/injection, schedule: Q01DX Z (iv), vehicle: water",94 % of control
same,T/C,"dose: 0.4 mg/kg/injection, schedule: Q01DX006 (iv), vehicle: carboxymethylcellulose (CMC)",113 % of control
same,T/C,"dose: 0.5 mg/kg/injection, schedule: Q01DX Z (ip), vehicle: carboxymethylcellulose (CMC)",107 % of control
same,T/C,"dose: 0.5 mg/kg/injection, schedule: Q01DX Z (sc), vehicle: saline",108 % of control
same,T/C,"dose: 0.6 mg/kg/injection, schedule: Q01DX006 (iv), vehicle: carboxymethylcellulose (CMC)",120 % of control
same,T/C,"dose: 0.8 mg/kg/injection, schedule: Q01DX006 (iv), vehicle: carboxymethylcellulose (CMC)",111 % of control
same,T/C,"dose: 0.94 mg/kg/injection, schedule: Q01DX Z (ip), vehicle: saline",120 % of control
same,T/C,"dose: 1.0 mg/kg/injection, schedule: Q01DX Z (sc), vehicle: saline",110 % of control
same,T/C,"dose: 1.76 mg/kg/injection, schedule: Q01DX015 (ip), vehicle: carboxymethylcellulose (CMC)",154 % of control
same,T/C,"dose: 2.0 mg/kg/injection, schedule: Q01DX010 (ip), vehicle: other",160 % of control and 162 % of control
same,T/C,"dose: 2.0 mg/kg/injection, schedule: Q01DX Z (sc), vehicle: saline",110 % of control
same,T/C,"dose: 2.6 mg/kg/injection, schedule: Q01DX015 (ip), vehicle: carboxymethylcellulose (CMC)",230 % of control
same,T/C,"dose: 3.75 mg/kg/injection, schedule: Q01DX Z (ip), vehicle: saline",245 % of control
same,T/C,"dose: 4.0 mg/kg/injection, schedule: Q01DX010 (ip), vehicle: other",215 % of control and 217 % of control and 251 % of control
same,T/C,"dose: 4.0 mg/kg/injection, schedule: Q01DX015 (ip), vehicle: carboxymethylcellulose (CMC)",305 % of control
same,T/C,"dose: 4.0 mg/kg/injection, schedule: Q01DX Z (sc), vehicle: saline",156 % of control and 195 % of control
same,T/C,"dose: 6.0 mg/kg/injection, schedule: Q01DX015 (ip), vehicle: carboxymethylcellulose (CMC)",319 % of control
same,T/C,"dose: 8.0 mg/kg/injection, schedule: Q01DX010 (ip), vehicle: other",245 % of control and 258 % of control and 345 % of control
same,T/C,"dose: 8.0 mg/kg/injection, schedule: Q01DX Z (sc), vehicle: saline",259 % of control
same,T/C,"dose: 9.0 mg/kg/injection, schedule: Q01DX015 (ip), vehicle: carboxymethylcellulose (CMC)",180 % of control
same,T/C,"dose: 10.0 mg/kg/injection, schedule: Q01DX010 (sc), vehicle: saline",106 % of control
same,T/C,"dose: 10.0 mg/kg/injection, schedule: Q02DX004 (im), vehicle: olive oil, sesame oil, peanut oil",154 % of control and 178 % of control
same,T/C,"dose: 14.0 mg/kg/injection, schedule: Q01DX001 (ip), vehicle: other",156 % of control
same,T/C,"dose: 16.0 mg/kg/injection, schedule: Q01DX010 (ip), vehicle: other",97 % of control and 98 % of control and 100 % of control
same,T/C,"dose: 16.0 mg/kg/injection, schedule: Q01DX Z (sc), vehicle: carboxymethylcellulose (CMC)",102 % of control
same,T/C,"dose: 16.0 mg/kg/injection, schedule: Q01DX Z (sc), vehicle: saline",124 % of control
same,T/C,"dose: 20.0 mg/kg/injection, schedule: Q01DX001 (im), vehicle: steriod suspending solution",110 % of control
same,T/C,"dose: 20.0 mg/kg/injection, schedule: Q01DX010 (sc), vehicle: olive oil, sesame oil, peanut oil",87 % of control
same,T/C,"dose: 20.0 mg/kg/injection, schedule: Q01DX010 (sc), vehicle: saline",87 % of control
same,T/C,"dose: 20.0 mg/kg/injection, schedule: Q02DX004 (im), vehicle: olive oil, sesame oil, peanut oil",250 % of control and 285 % of control
same,T/C,"dose: 21.0 mg/kg/injection, schedule: Q01DX001 (ip), vehicle: carboxymethylcellulose (CMC)",156 % of control
same,T/C,"dose: 21.0 mg/kg/injection, schedule: Q01DX001 (ip), vehicle: saline",159 % of control and 172 % of control
same,T/C,"dose: 32.0 mg/kg/injection, schedule: Q01DX001 (ip), vehicle: carboxymethylcellulose (CMC)",172 % of control
same,T/C,"dose: 32.0 mg/kg/injection, schedule: Q01DX001 (ip), vehicle: other",202 % of control
same,T/C,"dose: 32.0 mg/kg/injection, schedule: Q01DX001 (ip), vehicle: saline",196 % of control
same,T/C,"dose: 40.0 mg/kg/injection, schedule: Q01DX001 (im), vehicle: steriod suspending solution",173 % of control
same,T/C,"dose: 40.0 mg/kg/injection, schedule: Q02DX004 (im), vehicle: olive oil, sesame oil, peanut oil",100 % of control and 86 % of control
same,T/C,"dose: 48.0 mg/kg/injection, schedule: Q01DX001 (ip), vehicle: carboxymethylcellulose (CMC)",219 % of control
same,T/C,"dose: 48.0 mg/kg/injection, schedule: Q01DX001 (ip), vehicle: saline",243 % of control and 247 % of control
same,T/C,"dose: 62.0 mg/kg/injection, schedule: Q01DX Z (oral), vehicle: carboxymethylcellulose (CMC)",102 % of control
same,T/C,"dose: 62.5 mg/kg/injection, schedule: Q01DX010 (oral), vehicle: other",105 % of control
same,T/C,"dose: 72.0 mg/kg/injection, schedule: Q01DX001 (ip), vehicle: saline",103 % of control and 229 % of control
same,T/C,"dose: 90.0 mg/kg/injection, schedule: Q#A X Z (oral), vehicle: carboxymethylcellulose (CMC)",100 % of control
same,T/C,"dose: 125.0 mg/kg/injection, schedule: Q01DX010 (oral), vehicle: other",177 % of control
same,T/C,"dose: 125.0 mg/kg/injection, schedule: Q01DX Z (oral), vehicle: carboxymethylcellulose (CMC)",105 % of control
same,T/C,"dose: 125.0 mg/kg/injection, schedule: Q01DX Z (oral), vehicle: saline",92 % of control
same,T/C,"dose: 135.0 mg/kg/injection, schedule: Q#A X Z (oral), vehicle: carboxymethylcellulose (CMC)",91 % of control
same,T/C,"dose: 180.0 mg/kg/injection, schedule: Q01DX Z (oral), vehicle: carboxymethylcellulose (CMC)",108 % of control
same,T/C,"dose: 202.5 mg/kg/injection, schedule: Q#A X Z (oral), vehicle: carboxymethylcellulose (CMC)",115 % of control
same,T/C,"dose: 250.0 mg/kg/injection, schedule: Q01DX010 (oral), vehicle: other",194 % of control
same,T/C,"dose: 250.0 mg/kg/injection, schedule: Q01DX Z (oral), vehicle: carboxymethylcellulose (CMC)",120 % of control
same,T/C,"dose: 250.0 mg/kg/injection, schedule: Q01DX Z (oral), vehicle: saline",89 % of control
same,T/C,"dose: 270.0 mg/kg/injection, schedule: Q01DX Z (oral), vehicle: carboxymethylcellulose (CMC)",102 % of control
same,T/C,"dose: 405.0 mg/kg/injection, schedule: Q01DX Z (oral), vehicle: carboxymethylcellulose (CMC)",120 % of control
same,T/C,"dose: 500.0 mg/kg/injection, schedule: Q01DX010 (oral), vehicle: other",122 % of control
same,T/C,"dose: 500.0 mg/kg/injection, schedule: Q01DX Z (oral), vehicle: saline",113 % of control
same,T/C,"dose: 540.0 mg/kg/injection, schedule: Q03DX Z (oral), vehicle: carboxymethylcellulose (CMC)",98 % of control
same,T/C,"dose: 800.0 mg/kg/injection, schedule: Q03DX Z (oral), vehicle: carboxymethylcellulose (CMC)",112 % of control
same,T/C,"dose: 1200.0 mg/kg/injection, schedule: Q03DX Z (oral), vehicle: carboxymethylcellulose (CMC)",120 % of control
same,T/C,"dose: 1200.0 mg/kg/injection, schedule: Q07DX Z (oral), vehicle: carboxymethylcellulose (CMC)",95 % of control
same,T/C,"dose: 1800.0 mg/kg/injection, schedule: Q07DX Z (oral), vehicle: carboxymethylcellulose (CMC)",106 % of control
same,T/C,"dose: 2700.0 mg/kg/injection, schedule: Q07DX Z (oral), vehicle: carboxymethylcellulose (CMC)",124 % of control
c1ccc2cc(SCN3CCOCC3)ccc2c1,T/C,"dose: 100.0 mg/kg/injection, schedule: Q04DX003 (ip), vehicle: Klucel (hydroxypropylcellulose) (HPC)",97 % of control
same,T/C,"dose: 200.0 mg/kg/injection, schedule: Q04DX003 (ip), vehicle: Klucel (hydroxypropylcellulose) (HPC)",101 % of control
same,T/C,"dose: 400.0 mg/kg/injection, schedule: Q04DX003 (ip), vehicle: Klucel (hydroxypropylcellulose) (HPC)",97 % of control
CC[N+](CC)(CC)Cc1ccccc1,T/C,"dose: 6.25 mg/kg/injection, schedule: Q01DX009 (ip), vehicle: Klucel (hydroxypropylcellulose) (HPC)",104 % of control
same,T/C,"dose: 6.25 mg/kg/injection, schedule: Q04DX003 (ip), vehicle: saline",113 % of control
same,T/C,"dose: 12.5 mg/kg/injection, schedule: Q01DX009 (ip), vehicle: Klucel (hydroxypropylcellulose) (HPC)",107 % of control
same,T/C,"dose: 12.5 mg/kg/injection, schedule: Q04DX003 (ip), vehicle: saline",97 % of control
same,T/C,"dose: 25.0 mg/kg/injection, schedule: Q01DX001 (ip), vehicle: saline",96 % of control and 100 % of control
same,T/C,"dose: 25.0 mg/kg/injection, schedule: Q01DX009 (ip), vehicle: Klucel (hydroxypropylcellulose) (HPC)",98 % of control and 100 % of control
same,T/C,"dose: 25.0 mg/kg/injection, schedule: Q04DX003 (ip), vehicle: saline",97 % of control and 100 % of control
same,T/C,"dose: 50.0 mg/kg/injection, schedule: Q01DX001 (ip), vehicle: saline",98 % of control and 102 % of control
same,T/C,"dose: 50.0 mg/kg/injection, schedule: Q04DX003 (ip), vehicle: saline",98 % of control
